Measurements published in patent USRE47193E1, “Selectively substituted quinoline compounds” (EISAI R&D MANAGEMENT CO., LTD., priority 2013, dated 2019).
“And” between values parts separate entries of the source, which are not always exact repeats. Equal entries are not always repeated. Where two headings read alike, the source gives them in different places.

Target: T1, Human TLR7 (Homo sapiens, UniProt Q9NYK1)
T1 construct: stably and individually express human TLR4, TLR7 or TLR9 full-length ORF cDNAs; host or cells: HEK-293 (ATCC) with ELAM-1 NF-kappaB luciferase reporter
T1 sequence (Q9NYK1 27-1049): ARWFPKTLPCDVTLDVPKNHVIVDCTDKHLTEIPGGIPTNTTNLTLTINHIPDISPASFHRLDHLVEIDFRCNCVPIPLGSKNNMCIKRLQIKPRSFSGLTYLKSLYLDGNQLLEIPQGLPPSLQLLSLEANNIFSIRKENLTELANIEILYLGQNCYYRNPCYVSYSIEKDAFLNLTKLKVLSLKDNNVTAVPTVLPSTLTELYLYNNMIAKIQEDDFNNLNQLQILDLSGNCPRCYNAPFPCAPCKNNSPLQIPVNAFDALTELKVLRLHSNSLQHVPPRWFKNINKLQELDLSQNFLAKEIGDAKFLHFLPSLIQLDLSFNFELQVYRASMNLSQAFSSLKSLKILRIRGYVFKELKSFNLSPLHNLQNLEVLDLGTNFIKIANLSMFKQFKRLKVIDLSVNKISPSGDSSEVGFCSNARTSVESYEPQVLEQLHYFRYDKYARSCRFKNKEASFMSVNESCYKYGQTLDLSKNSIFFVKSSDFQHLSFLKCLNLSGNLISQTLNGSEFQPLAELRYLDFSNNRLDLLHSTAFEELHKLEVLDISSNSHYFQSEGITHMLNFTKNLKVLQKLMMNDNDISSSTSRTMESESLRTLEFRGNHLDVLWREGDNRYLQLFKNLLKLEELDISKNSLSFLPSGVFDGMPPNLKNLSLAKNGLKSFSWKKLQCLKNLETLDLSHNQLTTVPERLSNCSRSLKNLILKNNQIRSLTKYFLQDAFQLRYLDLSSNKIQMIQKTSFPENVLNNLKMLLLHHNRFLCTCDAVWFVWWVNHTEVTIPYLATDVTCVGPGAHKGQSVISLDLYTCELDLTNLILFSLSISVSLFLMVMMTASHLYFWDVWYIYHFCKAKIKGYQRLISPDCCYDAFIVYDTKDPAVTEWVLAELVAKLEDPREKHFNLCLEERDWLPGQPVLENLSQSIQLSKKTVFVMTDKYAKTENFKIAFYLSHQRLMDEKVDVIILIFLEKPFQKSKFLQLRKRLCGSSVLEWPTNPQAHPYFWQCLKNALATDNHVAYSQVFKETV
Assay: HEK-293 human TLR7 NF-kappaB luciferase reporter assay (CL097)
Format: cell-based
Procedure: Effects on mouse TLR7 were also compared. Cells were stimulated overnight with TLR7/8 agonist CL097 at pre-determined ED70-80: 3 ug/ml for HEK-hTLR7, 1.5 ug/ml for HEK-mTLR7 and 12 ug/ml for HEK-hTLR8, before reading luminescence intensity. Three tests were performed and IC50 value was determined using Graphpad Prism 6 nonlinear regression curve fit.
HEK-293 cells (ATCC) were engineered to stably express a NF-kappaB transcription factor inducible E-selectin (ELAM-1) luciferase reporter derived from the plasmid pGL3 (Promega) containing base pairs −2241 bp to −254 bp from the promoter of the human E-selectin gene (Accession No. NM_000450). These cells were then subsequently engineered to stably and individually express human TLR4, TLR7 or TLR9 full-length ORF cDNAs. Human TLR4 cDNA (Accession No. NM_138554) was cloned into pcDNA 3.0 expression vector (Invitrogen). TLR4 transfected cells were also engineered to express human MD-2 co-receptor [MD-2 cDNA (Accession No. NM_015364) was cloned into the pEF-BOS vector] and were supplemented with 10 nM soluble CD14 (R&D Systems) in the media to optimize LPS responsiveness. Human TLR9 cDNA (Accession No. NM_017442) was cloned into the pBluescript II KS vector (Agilent). Human TLR7 cDNA (Accession No. NM_016562) was obtained from OriGene. HEK-293 cells stably expressing human TLR8 (Accession No. NM_138636) or mouse TLR7 (Accession No. NM_133211) were purchased from InvivoGen and were then stably transfected with pNiFty2(NF-kappaB)-luciferase reporter plasmid (InvivoGen). Each cell type was plated in Dulbecco's modified Eagle's medium (DMEM) containing 10% fetal bovine serum (FBS) at a density of 2.22×10^5 cells/ml into a 384-well plate and incubated for 2 days at 37° C., 5% CO2. Varying concentrations of antagonist compounds were then added. Cells were then incubated for another 30 minutes before adding the appropriate TLR agonist as follows (final concentrations indicated): lipopolysaccharide (LPS; Sigma) at 10 ng/ml for TLR4, CL097 (InvivoGen) at 3 ug/ml for human TLR7 and TLR8 and mouse TLR7, and CvG-2006-2A [sequence: […] (SEQ ID NO: 1) with phosphorothioate backbone, synthesized by Sigma-Aldrich] at 0.6 uM for TLR9.

| Compound | IC50 (IC50, HEK-293, ligand CL097, analyte NFkB-luciferase (Table 1)) [µM] | IC50 (IC50, HEK-hTLR7, CL097 3 ug/ml, individual tests 1-3) | IC50 (IC50 average, HEK-hTLR7, CL097 3 ug/ml, average of three tests) [µM] | IC50 (HEK-hTLR7, CL097 3 ug/ml, average of three tests, read-out: IC50 average) [µM] | IC50 (HEK-hTLR7, CL097 3 ug/ml, individual tests 1-3, read-out: IC50) |
| --- | --- | --- | --- | --- | --- |
| C[C@@H]1CN(c2ccc(C#N)c3ncccc23)C[C@H](C(=O)N[C@H]2CNC[C@H]2F)O1.Cl [ER-899742, (2R,6R)-4-(8-cyanoquinolin-5-yl)-N-[(3S,4R)-4-fluoropyrrolidin-3-yl]-6-methylmorpholine-2-carboxamide hydrochloride] | 0.006 | 0.023 µM and 0.026 µM | 0.024 | – | – |
| CCN(CCO)CCCC(C)Nc1ccnc2cc(Cl)ccc12 (centres unmarked) [HCQ, hydroxychloroquine, reference compound] | – | – | – | 9.1 | 6.8 µM and 14.5 µM and 5.95 µM |
